≈ marks a conversion by molar mass, not a printed value. Calls of active or inactive are those of the source. No cut-off for these calls is given here.
Experiments:
SF-268 = test: Cytotoxicity against human SF-268 cells assessed as reduction in cell viability at 0.5 to 16 uM measured after 72 hrs by SRB assay; format: functional, cell-based; conditions: dose 0.5-16 µM
MCF7 = test: Cytotoxicity against human MCF7 cells assessed as reduction in cell viability at 0.5 to 16 uM measured after 72 hrs by SRB assay; format: functional, cell-based; conditions: dose 0.5-16 µM
HepG2 = test: Cytotoxicity against human HepG2 cells assessed as reduction in cell viability at 0.5 to 16 uM measured after 72 hrs by SRB assay; format: functional, cell-based; conditions: dose 0.5-16 µM
Candida albicans = test: Antifungal activity against Candida albicans SC5314 assessed as fungal growth inhibition incubated for 16 to 18 hrs by broth microdilution method; format: functional; conditions: time 16-18 hrs

MIC (Candida albicans)	SMILES	Activity (SF-268)	Activity (MCF7)	Activity (HepG2)
100 µM (≈ 37.5 µg/mL)	CO[C@@H]1c2c(cc(O)c3c2C(=O)c2cccc(O)c2-3)C(=O)C(C)(Cl)[C@H]1O (stereo partly specified)	inactive	inactive	inactive
100 µM (≈ 46.1 µg/mL)	CC1(Nc2ccccc2C(=O)O)C(=O)c2cc(O)c3c(c2[C@@H](O)[C@@H]1O)C(=O)c1cccc(O)c1-3 (stereo partly specified)	inactive	inactive	inactive
100 µM (≈ 44.3 µg/mL)	C[C@]12O[C@H]1[C@H](Nc1ccccc1C(=O)O)c1c(cc(O)c3c1C(=O)c1cccc(O)c1-3)C2=O	inactive	inactive	inactive

Further lines, the molecule ahead of its results:

SMILES	MIC (Candida albicans)	Activity (SF-268)	Activity (MCF7)	Activity (HepG2)
C[C@]12O[C@H]1[C@H](n1oc(=O)c3ccccc31)c1c(cc(O)c3c1C(=O)c1cccc(O)c1-3)C2=O	–	inactive	inactive	inactive
CCC(C)C(=O)O[C@@H]1c2c(cc(O)c3c2C(=O)c2cccc(O)c2-3)C(=O)C(C)(Cl)[C@H]1O (stereo partly specified)	–	inactive	inactive	inactive
CC(=O)/C=C/c1c2c(c3c4c1c(O)nn4[C@@H]1c4c(cc(O)c5c4C(=O)c4cccc(O)c4-5)C(=O)[C@](C)(O3)[C@H]1O)-c1c(O)cccc1C2=O	–	inactive	inactive	inactive

— ChEMBL document CHEMBL4840325, “Discovery of an Unexpected 1,4-Oxazepine-Linked seco-Fluostatin Heterodimer by Inactivation of the Oxidoreductase-Encoding Gene flsP” (2021)
